Laboratory results as given in patent US9096593B2, “Compounds and methods for kinase modulation, and indications therefor” (Plexxikon Inc., priority 2009, dated 2015).
Where two headings read alike, the source gives them in different places.

What was measured:
[1] = target: Fms kinase (Homo sapiens (Human), UniProt P07333); experiment: Fms kinase biochemical activity assay (AlphaScreen, biotin-(E4Y)10 phosphorylation)
In short: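 Recombinant human Fms phosphorylating 30 nM biotin-(E4Y)10 with 100 μM ATP (1 ng/well enzyme) in Hepes pH 7.5 buffer with Mg2+/Mn2+, 5% DMSO, 20 min at 30 °C. Phosphotyrosine detected by AlphaScreen streptavidin donor/PY20 acceptor beads; IC50 from signal versus compound concentration.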

[2] = target: BCR-FMS/BaF3 cells (Homo sapiens, UniProt P07333); experiment: BCR-FMS/BaF3 cell proliferation assay (ATPlite); format: cell-based
Protocol: Compounds are assessed in a variety of cell based assays. For example BCR-FMS/BaF3, BCR-KIT/BaF3, M-NFS-60, M-07e, and BAC1.2F5 cell proliferation assays are used to assess inhibitory activity of Fms or Kit and MV-4-11 cell proliferation assay is used to assess inhibitory activity in Flt-3. […] On day 1, cells are counted, then centrifuged in a conical tube for 5 minutes at 1000 rpm. The supernatant is removed and cells are re-suspended as follows: • BCR-FMS/BaF3 and BCR-KIT/BaF3: resuspend in growth media+1 mg/mL G418 (without WEHI/IL-3) to 2×10^5 cells/mL. • M-NFS-60: resuspend in growth media +62 ng/mL murine M-CSF to 5×10^5 cells/mL. • M-07e: resuspend in growth media +200 ng/mL human SCF to 5×10^5 cells/mL. • BAC1.2F5: resuspend in growth media +36 ng/mL murine M-CSF to 1.4×10^5 cells/mL. • MV-4-11: resuspend in growth media +10% FBS to 5×10^5 cells/mL. […] On day 2, compound at a maximum concentration of 5 mM is serially diluted 1:3 for a total of 8 point titration with DMSO as a control. A 1 μL aliquot of each dilution point is added to 249 μL growth media and 50 μL is added to a well containing cells, providing 10 μM compound for the maximum concentration point. The cells are incubated for 3 days at 37° C. in 5% CO2. […] ATPlite is added to each well as follows: • BCR-FMS/BaF3 and BCR-KIT/BaF3: 25 μL per well. • M-NFS-60: 25 μL per well. • M-07c: 40 μL per well. • BAC1.2F5: 50 μL per well. • MV-4-11: 40 μL per well. The cells are incubated at room temperature for 10 minutes, then luminescence is read on Safire reader. The measured luminescence correlates directly with cell number, such that the reading as a function of compound concentration is used to determine the IC50 value.

[3] = target: c-Kit kinase (Homo sapiens (Human), UniProt P10721); experiment: c-Kit kinase biochemical activity assay (AlphaScreen, biotin-(E4Y)10 phosphorylation)
Protocol: In one assay the biochemical activity IC50 values are determined with respect to inhibition of c-Kit kinase activity, where inhibition of phosphorylation of a peptide substrate is measured as a function of compound concentration. Compounds to be tested are dissolved in DMSO to a concentration of 20 mM. These are diluted 30 μL into 120 μL of DMSO (4 mM) and 1 μL is added to an assay plate. These are then serially diluted […] (50 μL to 100 μL DMSO) for a total of 8 points. Plates are prepared such that each kinase reaction is 20 μL in 1× kinase buffer (25 mM HEPES, pH 7.5, 2 mM MgCl2, 2 mM MnCl2, 0.01% Tween-20, 1 mM DTT, 0.01% BSA), 5% DMSO and 100 μM ATP. Substrate is 30 nM biotin-(E4Y)10 (Millipore). C-kit kinase (obtained from Millipore (#14-559) or is prepared as described in U.S. Patent Application Publication Number 2009/0076046, the disclosure of which is hereby incorporated by reference as it relates to this assay) is at 0.75 ng per sample. After incubation of the kinase reaction for 1 hour at room temperature, 5 μL of donor beads (Streptavidin coated beads (Perkin Elmer Life Science) final concentration 10 μg/mL) in stop buffer (25 mM Hepes pH 7.5, 100 mM EDTA, 0.01% BSA) is added, the sample is mixed and incubated for 20 minutes at room temperature before adding 5 μL of acceptor beads (PY20 coated beads (Perkin Elmer Life Science) final concentration 10 μg/mL) in stop buffer. The samples are incubated for 60 minutes at room temperature and the signal per well is read on Envision reader. […] The signal vs. compound concentration is used to determine the IC50.

[4] = 100 μM ATP, read-out: Biochemical (IC50 μM) Fms
[5] = read-out: Cell based (IC50 μM) BCR/BaF3 (Fms); BCR-FMS/BaF3 cells, 3 days
[6] = read-out: Biochemical activity (IC50 μM) Fms
[7] = Kit IC50/Fms IC50, BCR-KIT/BaF3 vs BCR-FMS/BaF3 cells
[8] = read-out: BCR/BaF3 (IC50 μM) Fms; BCR-FMS/BaF3 cells
[9] = BCR-FMS/BaF3 cells; read-out: BCR/BaF3 (IC50 μM) Fms

Fms kinase, sequence (P07333 20-972): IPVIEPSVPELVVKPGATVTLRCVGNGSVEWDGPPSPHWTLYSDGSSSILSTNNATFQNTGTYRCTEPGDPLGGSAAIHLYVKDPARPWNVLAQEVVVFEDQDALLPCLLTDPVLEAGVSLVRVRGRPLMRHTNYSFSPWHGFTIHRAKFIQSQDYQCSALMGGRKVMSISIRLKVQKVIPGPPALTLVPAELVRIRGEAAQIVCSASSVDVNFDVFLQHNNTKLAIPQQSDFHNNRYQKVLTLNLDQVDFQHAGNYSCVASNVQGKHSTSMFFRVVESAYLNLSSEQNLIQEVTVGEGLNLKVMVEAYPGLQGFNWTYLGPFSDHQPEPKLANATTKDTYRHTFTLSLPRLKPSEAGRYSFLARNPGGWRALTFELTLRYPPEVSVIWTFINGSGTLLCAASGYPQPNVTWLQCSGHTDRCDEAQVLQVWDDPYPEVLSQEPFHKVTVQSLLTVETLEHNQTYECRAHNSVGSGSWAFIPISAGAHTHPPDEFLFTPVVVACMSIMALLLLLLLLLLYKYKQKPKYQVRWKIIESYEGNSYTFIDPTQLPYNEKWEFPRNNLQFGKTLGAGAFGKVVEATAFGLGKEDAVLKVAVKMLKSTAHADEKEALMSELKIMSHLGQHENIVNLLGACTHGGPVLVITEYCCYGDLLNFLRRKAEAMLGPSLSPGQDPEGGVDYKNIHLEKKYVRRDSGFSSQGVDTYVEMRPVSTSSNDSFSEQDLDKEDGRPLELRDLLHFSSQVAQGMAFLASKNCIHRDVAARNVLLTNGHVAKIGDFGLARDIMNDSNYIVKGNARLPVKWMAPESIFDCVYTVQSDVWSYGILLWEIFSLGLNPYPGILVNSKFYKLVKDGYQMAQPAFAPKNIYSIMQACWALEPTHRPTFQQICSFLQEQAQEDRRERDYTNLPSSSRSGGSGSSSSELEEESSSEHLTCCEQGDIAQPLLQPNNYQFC
BCR-FMS/BaF3 cells, sequence (P07333 20-972 limits assumed, change not shown): as the sequence (P07333 20-972) above
c-Kit kinase, sequence (P10721 26-976): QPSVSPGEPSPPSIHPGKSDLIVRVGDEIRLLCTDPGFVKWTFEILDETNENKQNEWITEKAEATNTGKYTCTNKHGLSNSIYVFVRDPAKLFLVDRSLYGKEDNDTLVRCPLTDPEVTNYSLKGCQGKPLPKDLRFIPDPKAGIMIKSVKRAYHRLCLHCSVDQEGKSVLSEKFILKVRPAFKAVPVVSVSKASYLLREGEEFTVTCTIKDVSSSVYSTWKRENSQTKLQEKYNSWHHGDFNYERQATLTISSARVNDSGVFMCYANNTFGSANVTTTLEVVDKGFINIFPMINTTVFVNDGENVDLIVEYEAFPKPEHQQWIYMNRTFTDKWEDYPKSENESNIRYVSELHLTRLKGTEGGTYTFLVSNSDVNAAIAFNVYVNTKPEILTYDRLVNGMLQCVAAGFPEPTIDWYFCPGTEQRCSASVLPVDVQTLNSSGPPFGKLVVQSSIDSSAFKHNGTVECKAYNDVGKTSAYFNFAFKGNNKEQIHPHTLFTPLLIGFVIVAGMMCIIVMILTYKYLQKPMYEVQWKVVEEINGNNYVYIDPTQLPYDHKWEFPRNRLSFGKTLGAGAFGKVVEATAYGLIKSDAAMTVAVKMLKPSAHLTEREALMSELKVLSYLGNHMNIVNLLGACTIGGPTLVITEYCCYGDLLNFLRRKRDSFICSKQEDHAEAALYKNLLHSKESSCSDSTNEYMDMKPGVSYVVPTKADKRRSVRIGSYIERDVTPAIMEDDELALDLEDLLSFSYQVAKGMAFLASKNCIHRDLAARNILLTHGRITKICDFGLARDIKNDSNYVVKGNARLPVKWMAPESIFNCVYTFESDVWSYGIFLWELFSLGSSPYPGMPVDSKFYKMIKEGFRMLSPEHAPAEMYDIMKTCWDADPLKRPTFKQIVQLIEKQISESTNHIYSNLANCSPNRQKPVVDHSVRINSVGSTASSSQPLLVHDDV

IC50 [2, 9] [µM]	IC50 ([2]; BCR-FMS/BaF3 cells, 3 days; read-out: Cell based (IC50 μM) BCR/BaF3 (Fms)) [µM]	SMILES	IC50 [1, 4] [µM]	IC50 [2, 5] [µM]	Biochemical activity selectivity (Kit IC50/Fms IC50) [1]	IC50 [1, 6] [µM]	IC50 [3] [µM]	BCR/BaF3 selectivity (Kit IC50/Fms IC50) [2, 7]	IC50 [2, 8] [µM]
		Fc1nc(NCc2ccc(Cl)cn2)ccc1Cc1c[nH]c2ncccc12 [Compound P-2044, (5-Chloro-pyridin-2-ylmethyl)-[6-fluoro-5-(1H-pyrrolo[2,3-b]pyridin-3-ylmethyl)-pyridin-2-yl]-amine]	< 0.1	< 0.1					
		Fc1cncc(CNc2ncc(Cc3c[nH]c4ncc(Cl)cc34)cn2)c1 [Compound P-2176, [5-(5-Chloro-1H-pyrrolo[2,3-b]pyridin-3-ylmethyl)-pyrimidin-2-yl]-(5-fluoro-pyridin-3-ylmethyl)-amine]			>20	< 0.1	> 0.1	>20	< 0.1
		Cc1cnc2[nH]cc(Cc3cnc(NCc4cccc(N5CCOCC5)n4)nc3)c2c1 [Compound P-2081, [5-(5-Methyl-1H-pyrrolo[2,3-b]pyridin-3-ylmethyl)-pyrimidin-2-yl]-(6-morpholin-4-yl-pyridin-2-ylmethyl)-amine]			<20	< 0.1	< 0.1	<20	> 0.1
		COc1cnc2[nH]cc(Cc3ccc(NCc4ccc(OC)nc4)nc3F)c2c1 [Compound P-2030, [6-Fluoro-5-(5-methoxy-1H-pyrrolo[2,3-b]pyridin-3-ylmethyl)-pyridin-2-yl]-(6-methoxy-pyridin-3-ylmethyl)-amine]	< 0.1	< 0.1	<20	< 0.1	> 0.1	>20	< 0.1
		COc1ccc(CNc2ncc(Cc3c[nH]c4ncc(Cl)cc34)cn2)cn1 [Compound P-2038, [5-(5-Chloro-1H-pyrrolo[2,3-b]pyridin-3-ylmethyl)-pyrimidin-2-yl]-(6-methoxy-pyridin-3-ylmethyl)-amine]	< 0.1	< 0.1	<20	< 0.1	> 0.1	>20	< 0.1
		COc1ncc(F)cc1CNc1ncc(Cc2c[nH]c3ncc(C)cc23)cn1 [Compound P-2061, (5-Fluoro-2-methoxy-pyridin-3-ylmethyl)-[5-(5-methyl-1H-pyrrolo[2,3-b]pyridin-3-ylmethyl)-pyrimidin-2-yl]-amine]			>20	< 0.1	> 0.1	>20	< 0.1
< 0.1		Fc1ccc(CNc2ncc(Cc3c[nH]c4ncc(Cl)cc34)cn2)cc1F [Compound P-2008, [5-(5-Chloro-1H-pyrrolo[2,3-b]pyridin-3-ylmethyl)-pyrimidin-2-yl]-(3,4-difluoro-benzyl)-amine]			<20	< 0.1	< 0.1	<20	
		Cc1cnc2[nH]cc(Cc3cnc(NCc4cccc(C)n4)nc3)c2c1 [Compound P-2079, (6-Methyl-pyridin-2-ylmethyl)-[5-(5-methyl-1H-pyrrolo[2,3-b]pyridin-3-ylmethyl)-pyrimidin-2-yl]-amine]			<20	< 0.1	< 0.1	<20	< 0.1
		Cc1cnc2[nH]cc(Cc3ccc(NCc4ccnc(F)c4)nc3F)c2c1 [Compound P-2118, [6-Fluoro-5-(5-methyl-1H-pyrrolo[2,3-b]pyridin-3-ylmethyl)-pyridin-2-yl]-(2-fluoro-pyridin-4-ylmethyl)-amine]			>20	< 0.1	> 0.1	>20	< 0.1
		Cn1cc(F)cc(CNc2ncc(Cc3c[nH]c4ncc(Cl)cc34)cn2)c1=O [Compound P-2157, 3-{[5-(5-Chloro-1H-pyrrolo[2,3-b]pyridin-3-ylmethyl)-pyrimidin-2-ylamino]-methyl}-5-fluoro-1-methyl-1H-pyridin-2-one]			<20	> 0.1	> 0.1	>20	< 0.1
		COc1ccc(CNc2ncc(Cc3c[nH]c4ncc(C)cc34)cn2)cn1 [Compound P-2057, (6-Methoxy-pyridin-3-ylmethyl)-[5-(5-methyl-1H-pyrrolo[2,3-b]pyridin-3-ylmethyl)-pyrimidin-2-yl]-amine]	< 0.1	< 0.1	<20	< 0.1	> 0.1	>20	< 0.1
< 0.1		COc1cccc(CNc2ncc(Cc3c[nH]c4ncc(Cl)cc34)s2)n1 [Compound P-2163, [5-(5-Chloro-1H-pyrrolo[2,3-b]pyridin-3-ylmethyl)-thiazol-2-yl]-(6-methoxy-pyridin-2-ylmethyl)-amine]			<20	< 0.1	> 0.1	<20	
		Cc1cc(CNc2ccc(Cc3c[nH]c4ncc(Cl)cc34)c(F)n2)ccn1 [Compound P-2075, [5-(5-Chloro-1H-pyrrolo[2,3-b]pyridin-3-ylmethyl)-6-fluoro-pyridin-2-yl]-(2-methyl-pyridin-4-ylmethyl)-amine]			>20	< 0.1	> 0.1		
		COc1ncc(F)cc1CNc1ccc(Cc2c[nH]c3ncc(NC(C)=O)cc23)c(F)n1 [Compound P-1669, N-(3-{2-fluoro-6-[(5-fluoro-2-methoxy-pyridin-3-ylmethyl)-amino]-pyridin-3-ylmethyl}-1H-pyrrolo[2,3-b]pyridin-5-yl)-acetamide]						>20	< 0.1
		COc1cnc2[nH]cc(Cc3ccc(NCc4cccnc4OC)nc3F)c2c1 [Compound P-2043, [6-Fluoro-5-(5-methoxy-1H-pyrrolo[2,3-b]pyridin-3-ylmethyl)-pyridin-2-yl]-(2-methoxy-pyridin-3-ylmethyl)-amine]			>20			>20	< 0.1
	< 0.1	COc1cnc2[nH]cc(Cc3ccc(NCc4ccccc4Cl)nc3F)c2c1 [Compound P-2034, (2-chloro-benzyl)-[6-fluoro-5-(5-methoxy-1H-pyrrolo[2,3-b]pyridin-3-ylmethyl)-pyridin-2-yl]-amine]	< 0.1						
